Entries after “also recorded” stand apart in the source; their conditions may differ.
What was measured:
CF patients [1] = test: Phase II trial in CF patients: initial 16 subject safety cohort; type: in vivo, human; conditions: first 16 subject safety cohort
Experimental: (§1) A 6-month multi-center phase II clinical trial was performed to evaluate the effect of N-acetylcysteine (PharmaNAC®, BioAdvantex Pharma, Missisauga, Ontario Canada)) 900 mg effervescent tablets taken orally 3 times a day on airway inflammation in CF patients. 70 subjects were randomized to placebo or study drug. Randomization was stratified by study site, baseline FEV1, age, gender, chronic azithromycin, inhaled aztreonam for inhalation solution (AZLI) or tobramycin inhalation solution, USP (TOBI®, Novartis) and ibuprofen use. A cohort of 16 subjects served as an initial safety cohort.
General objectives of the study included determination of safety, tolerability and efficacy of NAC versus placebo at 0 week, 6 weeks, 12 week and 24 week time points. More specific objectives included evaluation of: (a) effect of NAC on number of pulmonary and sinus exacerbations and antibiotic use, (b) effect of NAC on lung inflammation; (c) effect of NAC on pulmonary function; (d) effect of NAC on weight; (e) effect of NAC on quality of life (QOL) and (f) whether NAC causes pulmonary hypertension if used chronically in high doses.
Effect of long-term treatment with NAC in promoting the development of pulmonary hypertension (PH) in subjects with cystic fibrosis is examined. A panel of clinical and molecular studies, performed at 6-week intervals, is assessed. […]

patients with COPD = conditions: 600 mg oral NAC per day, COPD patients with at least two exacerbations per year for 2 years; cited from earlier work
[2] = compared with cysteine; cited from earlier work
CF patients [3] = test: Phase II randomized placebo-controlled trial of oral NAC in CF patients: lung function by spirometry; type: in vivo, human
Experimental: A 24-week (6-month) multi-center large clinical trial was designed with randomization stratified to improve balance of baseline characteristics between treatment groups, and to improve precision between group treatment effects.
as §1
General objectives of the study included determination of safety, tolerability and efficacy of NAC versus placebo at 0 week, 6 weeks, 12 week and 24 week time points. […]
(§2) The primary efficacy endpoint in this study were sputum elastase activity as measured by ELISA assay reflecting lung inflammation. […]
(§3) The effect of NAC on chronic airway inflammation was measured by examining the change in the log10 of neutrophil elastase activity measured in sputum from enrollment to the end of the trial. The effect of NAC on neutrophil recruitment, lung function, pulmonary and sinus exacerbations, and on weight of CF subjects was measured by: change in the sputum neutrophil count, change in IL-8 in sputum and plasma, change in GSH in whole blood, incidence of pulmonary exacerbations, number of and time to first pulmonary exacerbation, incidence and number of antibiotics for any reason, and change in FEV1. Patient-reported outcomes (PRO) were measured by the CFQ-R and CFRD instruments.

ARDS and ALI = conditions: randomized controlled trials; cited from earlier work
CF patients [4] = test: Phase II trial in CF patients: pulmonary and sinus exacerbations and new antibiotic use; type: in vivo, human; conditions: 900 mg orally 3 times a day, 24 weeks, versus placebo
Experimental: as §1, with “cohort. […]” for “cohort.”
as §2, §3

patients with IPF = conditions: 600 mg NAC three times daily added to prednisone plus azothioprine, one year, versus standard therapy alone; cited from earlier work
[5] = system: Human Neurophil Elastase (HNE); test: Phase II trial in CF patients: sputum neutrophil elastase activity (airway inflammation); type: in vivo; conditions: 900 mg orally 3 times a day, 24 weeks, versus placebo
Experimental: A 6-month multi-center phase II clinical trial was performed to evaluate the effect of N-acetylcysteine (PharmaNAC®, BioAdvantex Pharma, Missisauga, Ontario Canada)) 900 mg effervescent tablets taken orally 3 times a day on airway inflammation in CF patients. 70 subjects were randomized to placebo or study drug. Randomization was stratified by study site, baseline FEV1, age, gender, chronic azithromycin, inhaled aztreonam for inhalation solution (AZLI) or tobramycin inhalation solution, USP (TOBI®, Novartis) and ibuprofen use. A cohort of 16 subjects served as an initial safety cohort. The primary efficacy endpoint in this study were sputum elastase activity as measured by ELISA assay reflecting lung inflammation. […] The effect of NAC on chronic airway inflammation was measured by examining the change in the log10 of neutrophil elastase activity measured in sputum from enrollment to the end of the trial. The effect of NAC on neutrophil recruitment, lung function, pulmonary and sinus exacerbations, and on weight of CF subjects was measured by: change in the sputum neutrophil count, change in IL-8 in sputum and plasma, change in GSH in whole blood, incidence of pulmonary exacerbations, number of and time to first pulmonary exacerbation, incidence and number of antibiotics for any reason, and change in FEV1. Patient-reported outcomes (PRO) were measured by the CFQ-R and CFRD instruments.

[6] = compared with the stable cysteine disulfide; cited from earlier work
[7] = effects counter to those reported for NAC; cited from earlier work
[8] = 900 mg orally 3 times a day, 6-month period, versus placebo

Row | Structure (SMILES) | adverse events (CF patients [1]) | pulmonary hypertension (CF patients [1]) | preventing deterioration in lung function and exacerbations (patients with COPD) | stability relative to cysteine [2] | FEV1 (lung function) versus baseline (CF patients [3]; 900 mg effervescent tablets orally 3 times a day, 6-month trial period, versus placebo (P=0.02)) | FEF (lung function) (CF patients [3]; [8]) | FVC (lung function) (CF patients [3]; [8]) | early mortality (ARDS and ALI) | new antibiotic prescriptions (CF patients [4]) | number of pulmonary or sinus exacerbations (CF patients [4]) | deterioration of DLCO (patients with IPF) | deterioration of vital capacity (patients with IPF) | airways inflammation, measured by HNE [5] | solubility relative to cystine [6] | bioactive dose relative to NAC [7]
1 | CC(=O)N[C@@H](CS)C(=O)O [NAC, N-acetylcysteine] | No adverse events | no pulmonary hypertension | ineffective | about 10 times | maintained baseline FEV1; also recorded: maintained lung function | maintained lung function | maintained lung function | no effect | No difference was detected | No difference was detected | slows the deterioration | slows the deterioration | No difference was detected | much more soluble | 
2 | CC(=O)N[C@@H](CSSC[C@H](NC(C)=O)C(=O)O)C(=O)O [oxidized form of NAC, di-N-acetylcysteine] |  |  |  |  |  |  |  |  |  |  |  |  |  |  | 10-100 fold less than NAC

Source: patent US20130116323A1, “METHODS OF IMPROVING OR PRESERVING LUNG FUNCTION IN A PATIENT WITH A PULMONARY DISORDER” (The Leland Stanford Junior University, priority 2011, published 2013)
